According to ChEMBL document CHEMBL3885861, “Open TG-GATES”:

Species on record: Rattus norvegicus
Experiment: Open TG-GATES - Regimen: Daily Repeat
Format: toxicity, organism-based, Sprague-Dawley
Parameters: regimen Daily Repeat, gender Male, age 6 weeks
Conditions: in vivo, po, 100 mg/kg, route gavage, dose level High; for APTT / Bas / Eos / Fbg / Hb / Ht / Lym / MCH / MCHC / MCV / Mono / Neu / PT / Plat / RBC / Ret / WBC: tissue Blood; for KIDNEY_L / KIDNEY_R / KIDNEY_TOTAL: tissue Kidney; for LIVER: tissue Liver; for ALP / ALT / AST / BUN / CRE / Ca / DBIL / GLC / IP / K / LDH / Na / PL / RALB / TBIL / TC / TG / TP / gamma-GTP: tissue Plasma

With `CSc1ccc2c(c1)N(CCC1CCCCN1C)c1ccccc1S2` (centres undefined) [THIORIDAZINE] the TERMINAL_BW (72 h, time 3 day) was 219.1 g, the APTT (72 h, time 3 day) was 15.9 s and the Bas (72 h, time 3 day) was 0%. For the same compound, the Eos (72 h, time 3 day) was 1%, the Fbg (72 h, time 3 day) was 196.2 mg/dL and the Hb (72 h, time 3 day) was 13.9 g/dL. For the same compound, the Ht (72 h, time 3 day) was 41.9%, the Lym (72 h, time 3 day) was 81.4% and the MCH (72 h, time 3 day) was 21.4 pg. For the same compound, the MCHC (72 h, time 3 day) was 33.2%, the MCV (72 h, time 3 day) was 64.4 fL and the Mono (72 h, time 3 day) was 5.4%. The Neu (72 h, time 3 day) was 12.2%, the PT (72 h, time 3 day) was 11.9 s and the Plat (72 h, time 3 day) was 117.8 x10_4/uL. The RBC (72 h, time 3 day) was 651.2 x10_4/ul, the Ret (72 h, time 3 day) was 6.1% and the WBC (72 h, time 3 day) was 136.4 x10_2/uL. The KIDNEY_L (72 h, time 3 day) was 1 g, the KIDNEY_R (72 h, time 3 day) was 1 g and the KIDNEY_TOTAL (72 h, time 3 day) was 2 g. It also gave an LIVER (72 h, time 3 day) of 12.2 g, an ALP (72 h, time 3 day) of 887.2 IU/L and an ALT (72 h, time 3 day) of 40 IU/L. The AST (72 h, time 3 day) was 63.2 IU/L, the BUN (72 h, time 3 day) was 19.4 mg/dL and the CRE (72 h, time 3 day) was 0.5 mg/dL. For the same compound, the Ca (72 h, time 3 day) was 10.9 mg/dL, the DBIL (72 h, time 3 day) was 0.062 mg/dL and the GLC (72 h, time 3 day) was 187.6 mg/dL. The IP (72 h, time 3 day) was 9.4 mg/dL, the K (72 h, time 3 day) was 4.5 meq/L and the LDH (72 h, time 3 day) was 158.8 IU/L. For the same compound, the Na (72 h, time 3 day) was 139.8 meq/L, the PL (72 h, time 3 day) was 164 mg/dL and the RALB (72 h, time 3 day) was 4 g/dL. For the same compound, the TBIL (72 h, time 3 day) was 0.2 mg/dL, the TC (72 h, time 3 day) was 84 mg/dL and the TG (72 h, time 3 day) was 92.4 mg/dL. The TP (72 h, time 3 day) was 5.9 g/dL, the gamma-GTP (72 h, time 3 day) was 1.6 IU/L and the TERMINAL_BW ([…], time 7 day) was 252.6 g. It also gave a TERMINAL_BW ([…], time 14 day) of 299.8 g, a TERMINAL_BW ([…], time 28 day) of 349.4 g and an APTT ([…], time 7 day) of 16.5 s. It also gave a Bas ([…], time 7 day) of 0%, an Eos ([…], time 7 day) of 0.2% and a Fbg ([…], time 7 day) of 213 mg/dL. For the same compound, the Hb ([…], time 7 day) was 14.3 g/dL, the Ht ([…], time 7 day) was 43.2% and the Lym ([…], time 7 day) was 80%. For the same compound, the MCH ([…], time 7 day) was 21.3 pg, the MCHC ([…], time 7 day) was 33.1% and the MCV ([…], time 7 day) was 64.2 fL. It also gave a Mono ([…], time 7 day) of 7.6%, a Neu ([…], time 7 day) of 12% and a PT ([…], time 7 day) of 12.3 s. It also gave a Plat ([…], time 7 day) of 98.4 x10_4/uL, an RBC ([…], time 7 day) of 672 x10_4/ul and a Ret ([…], time 7 day) of 4.6%. The WBC ([…], time 7 day) was 144.8 x10_2/uL, the APTT ([…], time 14 day) was 17.8 s and the Bas ([…], time 14 day) was 0%. The Eos ([…], time 14 day) was 0.8%, the Fbg ([…], time 14 day) was 242.8 mg/dL and the Hb ([…], time 14 day) was 15.2 g/dL. It also gave a Ht ([…], time 14 day) of 45.7%, a Lym ([…], time 14 day) of 75% and an MCH ([…], time 14 day) of 20.8 pg. For the same compound, the MCHC ([…], time 14 day) was 33.3%, the MCV ([…], time 14 day) was 62.5 fL and the Mono ([…], time 14 day) was 6%. For the same compound, the Neu ([…], time 14 day) was 18.2%, the PT ([…], time 14 day) was 11.9 s and the Plat ([…], time 14 day) was 112.1 x10_4/uL. It also gave an RBC ([…], time 14 day) of 733.4 x10_4/ul, a Ret ([…], time 14 day) of 4.4% and a WBC ([…], time 14 day) of 145.8 x10_2/uL. It also gave an APTT ([…], time 28 day) of 17.7 s, a Bas ([…], time 28 day) of 0% and an Eos ([…], time 28 day) of 0.6%. It also gave a Fbg ([…], time 28 day) of 225.4 mg/dL, a Hb ([…], time 28 day) of 15.6 g/dL and a Ht ([…], time 28 day) of 46.6%. The Lym ([…], time 28 day) was 80.4%, the MCH ([…], time 28 day) was 19.3 pg and the MCHC ([…], time 28 day) was 33.4%. For the same compound, the MCV ([…], time 28 day) was 57.7 fL, the Mono ([…], time 28 day) was 5.6% and the Neu ([…], time 28 day) was 13.8%. It also gave a PT ([…], time 28 day) of 12.5 s, a Plat ([…], time 28 day) of 92.7 x10_4/uL and an RBC ([…], time 28 day) of 808.8 x10_4/ul. For the same compound, the Ret ([…], time 28 day) was 2.5%, the WBC ([…], time 28 day) was 142.8 x10_2/uL and the KIDNEY_L ([…], time 7 day) was 1.2 g. It also gave a KIDNEY_R ([…], time 7 day) of 1.2 g, a KIDNEY_TOTAL ([…], time 7 day) of 2.3 g and a KIDNEY_L ([…], time 14 day) of 1.3 g. It also gave a KIDNEY_R ([…], time 14 day) of 1.3 g, a KIDNEY_TOTAL ([…], time 14 day) of 2.6 g and a KIDNEY_L ([…], time 28 day) of 1.4 g. The KIDNEY_R ([…], time 28 day) was 1.4 g, the KIDNEY_TOTAL ([…], time 28 day) was 2.8 g and the LIVER ([…], time 7 day) was 12.3 g. The LIVER ([…], time 14 day) was 13.6 g, the LIVER ([…], time 28 day) was 15.1 g and the ALP ([…], time 7 day) was 928.2 IU/L. For the same compound, the ALT ([…], time 7 day) was 34.2 IU/L, the AST ([…], time 7 day) was 64 IU/L and the BUN ([…], time 7 day) was 16 mg/dL. For the same compound, the CRE ([…], time 7 day) was 0.5 mg/dL, the Ca ([…], time 7 day) was 11.2 mg/dL and the DBIL ([…], time 7 day) was 0.008 mg/dL. For the same compound, the GLC ([…], time 7 day) was 199.8 mg/dL, the IP ([…], time 7 day) was 9.7 mg/dL and the K ([…], time 7 day) was 4.6 meq/L. The LDH ([…], time 7 day) was 100.2 IU/L, the Na ([…], time 7 day) was 141.6 meq/L and the PL ([…], time 7 day) was 166.8 mg/dL. For the same compound, the RALB ([…], time 7 day) was 3.8 g/dL, the TBIL ([…], time 7 day) was 0.4 mg/dL and the TC ([…], time 7 day) was 79 mg/dL. The TG ([…], time 7 day) was 132.4 mg/dL, the TP ([…], time 7 day) was 5.7 g/dL and the gamma-GTP ([…], time 7 day) was 1.4 IU/L. For the same compound, the ALP ([…], time 14 day) was 741.8 IU/L, the ALT ([…], time 14 day) was 30.4 IU/L and the AST ([…], time 14 day) was 61.2 IU/L. It also gave a BUN ([…], time 14 day) of 16.4 mg/dL, a CRE ([…], time 14 day) of 0.6 mg/dL and a Ca ([…], time 14 day) of 10.9 mg/dL. For the same compound, the DBIL ([…], time 14 day) was 0.02 mg/dL, the GLC ([…], time 14 day) was 178.2 mg/dL and the IP ([…], time 14 day) was 9.2 mg/dL. It also gave a K ([…], time 14 day) of 5.2 meq/L, an LDH ([…], time 14 day) of 189 IU/L and a Na ([…], time 14 day) of 142.8 meq/L. The PL ([…], time 14 day) was 152.2 mg/dL, the RALB ([…], time 14 day) was 4 g/dL and the TBIL ([…], time 14 day) was 0.4 mg/dL. It also gave a TC ([…], time 14 day) of 80.2 mg/dL, a TG ([…], time 14 day) of 83.4 mg/dL and a TP ([…], time 14 day) of 6.1 g/dL. For the same compound, the gamma-GTP ([…], time 14 day) was 1.4 IU/L, the ALP ([…], time 28 day) was 742.4 IU/L and the ALT ([…], time 28 day) was 35.4 IU/L. It also gave an AST ([…], time 28 day) of 55.8 IU/L, a BUN ([…], time 28 day) of 18.6 mg/dL and a CRE ([…], time 28 day) of 0.6 mg/dL. It also gave a Ca ([…], time 28 day) of 10.7 mg/dL, a DBIL ([…], time 28 day) of 0.006 mg/dL and a GLC ([…], time 28 day) of 176.4 mg/dL. The IP ([…], time 28 day) was 7.7 mg/dL, the K ([…], time 28 day) was 4.9 meq/L and the LDH ([…], time 28 day) was 115.4 IU/L. For the same compound, the Na ([…], time 28 day) was 142.6 meq/L, the PL ([…], time 28 day) was 160 mg/dL and the RALB ([…], time 28 day) was 4.1 g/dL. The TBIL ([…], time 28 day) was 0.2 mg/dL, the TC ([…], time 28 day) was 80.2 mg/dL and the TG ([…], time 28 day) was 111.4 mg/dL. For the same compound, the TP ([…], time 28 day) was 6.4 g/dL and the gamma-GTP ([…], time 28 day) was 1.6 IU/L.
